Non-standard residues stand in square brackets, D forms with d. Residues, ends and D or L forms follow the SMILES beside them. *: point of attachment. Sta = CC(C)C[C@H](N)[C@@H](O)CC(=O)O; Decanoyl = CCCCCCCCCC(=O)*; Isovaleryl = CC(C)CC(=O)*; CH2Cl = ClC*

This note sets out measurements from patent publication US7700562B2, “Use of —furin—“convertase” inhibitors in the treatment of fibrosis and scarring” (Renovo Limited, priority 2002, dated 2010).

Assay [1] concerns latent TGF-β activation in human platelets. Kind of assay: TGF-β activation by thrombin-activated human platelets, active and total TGF-β by PAI/L bioassay. Format: cell-based. The conditions noted are these: for latent TGF-β activation: platelets pre-incubated with inhibitor before thrombin stimulation, platelet releasates, FIG. 1 panels A and B.
The test system is the same in assay [2]. Described as above. Format: cell-based. As to conditions: for active TGF-β in releasates: thrombin-stimulated platelets, hexaarginine pre-incubated, dec-RVKR-cmk added, FIG. 2 panel A. How it is done: Peripheral venous blood samples from healthy adult volunteers (aged 21 to 45) were taken into 20-gauge S-Monovettes. EDTA was used to prevent coagulation of the samples. Human platelets were isolated by differential centrifugation according to the following protocol:
Blood samples were centrifuged at 300 g for 10 minutes to produce a supernatant of platelet rich plasma. Platelet rich plasma was then centrifuged at 2,500 g for 15 minutes to produce a pellet of platelets. Platelets were harvested from the pellet and resuspended prior to use.
(§1) Platelets collected as described above were resuspended in distilled water and incubated at room temperature for 5 minutes. Lysis was stopped by addition of an equal volume of 2× serum-free DME medium containing 0.2% pyrogen poor bovine serum albumen. The lysate was cleared by centrifugation at 12,000 g for 10 minutes at room temperature before use.
Human platelets collected as outlined above were activated by the addition of thrombin (0.1 u/ml for 30 minutes at 37° C.).
Platelets were activated with thrombin in the absence or presence of furin inhibitors. […] Active and total TGF-β in releasates were determined in the PAI/L bioassay. The results are shown in panel A of FIG. 2.

The subject of assay [3] is furin-like enzyme activity. The assay is described as follows: Furin-like enzyme activity in platelet lysates and releasates, fluorogenic furin substrate pyr-RTKR-amc. Format: biochemical, human. The conditions noted are these: hexaarginine 200 μM, dec-RVKR-cmk 150 μM, FIG. 3; for furin-like enzyme activity in cell lysates: hypotonic lysates of activated platelets; for furin-like enzyme activity in releasates: releasates of activated platelets. Here is the method:
as §1
Releasates or hypotonic lysates of activated platelets were assayed using the furin substrate, pyr-RTKR-amc (SEQ ID NO:3) in the absence or presence of the furin inhibitors, hexaarginine (SEQ ID NO: 7) (200 μM) or dec-RVKR-cmk (SEQ ID NO:1) (150 μM). Values were corrected for substrate-independent endogenous fluorescence (control without substrate) as well as for spontaneous substrate hydrolysis (buffer control). Mean values±S.E.M. of 2-3 separate experiments assayed in duplicate are shown.
The presence of furin-like enzyme activity in both hypotonic lysates and releasates of human platelets was analysed using the fluorogenic furin substrate, pyr-RTKR-amc (SEQ ID NO:3). Platelet lysates contained a furin-like enzyme activity, part of which (approximately 12%) was released upon thrombin stimulation. Enzyme activity in cell lysates and releasates was inhibited by dec-RVKR-cmk (SEQ ID NO:1) and hexa-L-arginine (SEQ ID NO: 7) (FIG. 3).

Assay [4] concerns latent TGF-β activation in platelet-free releasates. Kind of assay: TGF-β activation in platelet-free releasates of activated platelets, PAI/L bioassay. Format: biochemical, human. As to conditions: inhibitor added to platelet-free releasates, 30 mm at 37° C.; FIG. 2B. How it is done: In a further experiment, furin inhibitors were added to platelet-free releasates of activated platelets, and activation was allowed to continue in the absence of platelets for […] at 37° C. The results of this experiment are shown in panel B of FIG. 2. Active TGF-β levels in the controls were 77 pg/ml (dec-RVKR-cmk data (SEQ ID NO:1)) and 104 pg/ml (hexaarginine data (SEQ ID NO: 7)). Incubation on ice reduced activation in the controls to approximately 56% (data not shown). Data represent the mean values of three independent experiments assayed in triplicate.

Turning to α1-antitrypsin, in assay [1], the “latent TGF-β activation” value was “ineffective”. On to hexa-L-arginine (RRRRRR), for which, in assay [2], the “active TGF-β in releasates” value is “significantly reduced”. In assay [3], the “furin-like enzyme activity in cell lysates” value was “inhibited” and the “furin-like enzyme activity in releasates” value is listed as “inhibited”. Also, in assay [4], the “activation in platelet-free releasates” value was “inhibited, in a dose-dependent fashion”. As to “decanoyl-Arg-Val-Lys-Arg-chloromethyl ketone (Decanoyl-RVKR-CH2Cl) [dec-RVKR-cmk]”, in assay [2] (remaining after inhibitor, believed to be activated prematurely during platelet preparation), the “residual TGF-β present” value was 20-30%. Also, in assay [2], the “active TGF-β in releasates” value is “considerably reduces”. In addition, in assay [1] (measured in hypotonic lysates, dose-dependent, FIG. 1 panel C), the “generation of active TGF-β intracellularly” value was “drastically reduced”. Further, the “generation of active TGF-β in releasates” value in assay [1] (platelet incubation with inhibitor, thrombin stimulation, dose-dependent, FIG. 1 panel C) is “drastically reduced”. Besides, in assay [3], the “furin-like enzyme activity in cell lysates” value was “inhibited” and the “furin-like enzyme activity in releasates” value is reported as “inhibited”. Moreover, in assay [4], the “activation in platelet-free releasates” value is on record as “inhibited, in a dose-dependent fashion”. As to `Cl.NCCc1ccc(S(=O)(=O)F)cc1` [pefabloc], the “latent TGF-β activation” value in assay [1] is listed as “ineffective”. Still for that read-out and setting: under `CC(=O)N[C@@H](CC(C)C)C(=O)N[C@@H](CC(C)C)C(=O)N[C@H](C=O)CCCNC(=N)N` [leupeptin] stands “ineffective”; under aprotinin, “ineffective”. Still for that read-out and setting: in the case of `CC(C)C[C@H](NC(=O)[C@H]1O[C@@H]1C(=O)O)C(=O)NCCCCN=C(N)N` [E-64] it was “ineffective”; in that of “LSKL peptide: inhibitor specific for TSP-1”, “not significantly affected”; in that of `O=C[C@@H](O)[C@@H](O)[C@H](O)[C@H](O)COP(=O)(O)O` [M6P, mannose-6-phosphate], “not significantly affected”. In the case of `CC(C)CC(=O)N[C@H](C(=O)N[C@H](C(=O)N[C@@H](CC(C)C)[C@@H](O)CC(=O)N[C@@H](C)C(=O)N[C@@H](CC(C)C)[C@@H](O)CC(=O)O)C(C)C)C(C)C` [pepstatin] (Isovaleryl-VV[Sta]A[Sta]-OH), in assay [1], the “latent TGF-β activation” value is “ineffective”.
